Patent publication US20240408093A1, “HETEROBIFUNCTIONAL COMPOUNDS AND THEIR USE IN TREATING DISEASE” (HALDA THERAPEUTICS OPCO, INC., priority 2022, published 2024)
Like-named read-outs stand apart in the source and are kept apart here.

Experiments:
BTK = molecular target: T1, BTK (Homo sapiens, UniProt Q06187); experiment: Release of effector protein ligand from heterobifunctional compounds, BTK; assay type: biochemical
T1 construct: BTK (amino acids 387-659)
Procedure: Exemplary heterobifunctional compounds were evaluated for the ability to release an effector protein ligand in the presence of KRAS G12C, BTK, or EGFR T790M L858R target proteins.
Samples for mass spectrometry for KRAS G12C, BTK, and EGFR T790M L858R were prepared as described above for the intact mass spectrometry target engagement experiment, respectively, except rather than flash-freezing, 20 μL of sample was quenched with 50 μL of 100% acetonitrile. As well, a buffer-only control was used to detect latent release of effector protein ligand analyte. Internal standard (IS) solution consisted of 200 ng/mL propranolol and 50 ng/mL diclofenac in methanol:water 1:1 (v/v). A 4-point calibration curve (calibration standard (CS)) consisting of each analyte was made at final concentrations of 3 nM, 30 nM, 300 nM, and 3000 nM. Unknown samples were diluted such that the unknown analyte concentration was in the linear range of the calibration curve.
Samples for all proteins were prepared and analyzed from the following:
Samples were further analyzed with AB Sciex Triple Quad 5500 system coupled with Shimadzu Prominence HPLC.

[1] = tested on: HEK293 cells (ATCC CRL-1573); experiment: Cellular growth inhibition assay, HEK293 cells (Example 16); assay type: cell-based; details: Homo sapiens, 72 hours, CellTiter-Glo 2.0
Procedure: (§1) Exemplary compounds were tested for ability to inhibit the proliferation of HEK293 cells (ATCC CRL-1573) and HeLa cells (ATCC CCL-2).
(§2) HEK293 and HeLa cells were cultured in DMEM (Gibco 11995), supplemented with 10% Heat-inactivated FBS (Gibco A38400-01) and 1% Penicillin/Streptomycin (Gibco 15140-122) at 37° C. with 5% CO2 in a humidified tissue culture incubator. Cells were seeded at 500 cells/well in 384-well, Poly-D-lysine-treated blackplates (Perkin Elmer 6007710) in 25 μL media lacking selection for 18-24 hours. Plates were spun at 300 g for 30 seconds and stored in the incubator overnight. After 24 hours, a 25 μL aliquot of compound-containing medium was added in each well, at a final top concentration of 10 μM test compound, with 3-fold dilutions, using DMSO alone as a negative control. Plates were then spun at 300×g for 3 minutes again and cultured at 37° C. with 5% CO2. After 72 hours, cell viability was quantified with CellTiter-Glo 2.0 (Promega). After equilibrating cell plates at room temperature for 30 minutes, 25 μL CellTiter-Glo 2.0 reagent was dispensed into each well. Plates were mixed on a shaker for 2 minutes at 500 rpm, followed by a 10-minute incubation at room temperature. Luminescence readings were measured with an EnVision Plate Reader (Perkin Elmer). Data was normalized to DMSO treated cell wells. A four-parameter non-linear regression curve fit was applied to dose-response data in Prism to determine the half maximal growth inhibitory concentration (GI50) of each compound.

GSPT1 [2] = molecular target: T2, GSPT1 (Homo sapiens, UniProt P15170+Q96SW2); experiment: GSPT1 HiBiT degradation assay; assay type: cell-based; details: HEK293 LgBiT GSPT1 HiBiT cells, 6 hours
T2 construct: host or cells: HEK293 LgBiT / GSPT1 HiBiT CRISPR knock-in
From the text: Promega developed a HEK293 cell line that constitutively expresses LgBiT protein and GSPT1_HiBiT fusion protein. When both proteins are present, the HiBiT portion of the fusion protein combines with LgBiT protein to form a functional luciferase enzyme. Endurazine, a cell permeable small molecule, is converted by cellular esterases into furimazine, which the luciferase enzyme uses as a substrate to generate luminescence. When GSPT1 is degraded, the HiBit is also degraded. This prevents formation of fully functional luciferase, leading to a loss in luminescence. GSPT1 degradation therefore correlates with a decrease in luminescence and can be measured continuously over time. The concentration of compound at which 50% GSPT1 degradation occurs (DC50) may be calculated using this system.
HEK293 LgBiTGSPT1 HiBiT CRISPR Knock-in cells were cultured in DMEM Media supplemented with 10% Heat-inactivated FBS, 1% Penicillin/Streptomycin, 200 μg/mL hygromycin and stored in a humidified incubator set at 37° C. and 5% CO2. 18-24 hours prior to compound treatment, cells were seeded at 1000 cells/well in a 384-well tissue culture-treated white plates in 25 μL media lacking selection for 18-24 hours. The plates were spun at 300 g for 30 seconds and stored in the incubator overnight. After 24 hours, compounds are titrated in DMSO and added to media supplemented with endurazine substrate. A 25 μL aliquot of 2× compound/endurazine in media is then added to the 384-well microplate with seeded cells. (Endurazine is used at a final concentration of 0.5×). The plate was spun at 300 g for 30 seconds and stored in the incubator. After 6 hours, the plate was read on a Perkin Elmer MultiMode Plate Reader Envision 2105 to measure luminescence signal. Data were plotted in Prism (Graphpad) and the concentration of compound at which 50% GSPT1 degradation occurs (DC50) was calculated.

HeLa cells (ATCC CCL-2) = experiment: Cellular growth inhibition assay, HeLa cells (Example 16); assay type: cell-based; details: Homo sapiens, 72 hours, CellTiter-Glo 2.0
Procedure: as §1, §2

KRAS G12C = KRAS G12C (Homo sapiens, UniProt P01116, G12C); experiment: KRAS G12C nucleotide exchange assay (SOS1-mediated, HTRF); assay type: biochemical; set-up: GST-tagged KRAS G12C (amino acids 2-169); details: 1 hr pre-incubation
Procedure: KRAS target engagement (IC50 determination) was performed using a KRAS G12C nucleotide exchange assay. Specifically, compounds were tested against KRAS G12C in 10-point concentration IC50 mode with 3-fold serial dilution at a starting concentration of 10 μM. ARS1620 was used as a control.
Briefly, GST-tagged KRAS G12C (amino acids 2-169) was mixed with anti-GST Tb antibody (1.5× solution) and 10 μL was delivered to reaction wells. Compounds were delivered using an acoustic dispenser (Echo, Labcyte) and pre-incubated with protein for 1 hr at RT. KRAS/anti-GST Tb Ab/compound mixture was incubated for 1 hour at room temperature. A 3× solution of SOS1 (amino acids 564-1049) and GTP-DY-647P1 (GTP*) was prepared in reaction buffer. A 5 μL aliquot of SOS1/GTP* solution was added to reaction wells to initiate the exchange reaction. No-SOS1 reaction or max compound concentration was used as blank. The final concentrations of KRAS G12C, SOS1, and GTP* were 30 nM, 20 nM, and 0.15 μM, respectively. SOS1 mediated exchange of GDP to GTP-DY-647P was measured using HTRF (Ex/Em=(320-75/665-7.5; 615-8.5)) using an Envision Plate Reader (Perkin Elmer). IC50 determination was performed using a Sigmoidal dose response (variable slope) equation.

GSPT1 [3] = experiment: Payload release assay (DC50 readout), GSPT1 degradation in the presence of recombinant target protein; assay type: cell-based; details: I-series compounds (GSPT1 readout inferred)
Procedure: Exemplary compounds were tested for ability to cause degradation of CCNK or GSPT1 in the presence of recombinant target protein.
HEK293 LgBiT/GSPT1 HiBiT CRISPR Knock-in cells (Promega) were cultured in DMEM (Gibco 11995), supplemented with 10% Heat-inactivated FBS (Gibco A38400-01) and 1% Penicillin/Streptomycin (Gibco 15140-122) and 200 Vg/ml Hygromycin B (Gibco 10-687-010) at 37° C. with 5% CO2 in a humidified tissue culture incubator. HEK293 LgBiT/CCNK HiBiT cells (in-house, described above) were cultured in DMEM (Gibco 11995), supplemented with 10% Heat-inactivated FBS (Gibco A38400-01) and 1% Penicillin/Streptomycin (Gibco 15140-122) 200 Vg/ml Hygromycin B (Gibco 10-687-010), and 1 Vg/ml Puromycin Dihydrochloride (Thermo A1113803) at 37° C. with 5% CO2 in a humidified tissue culture incubator. Cells were seeded (1000 cells/well for HEK293 LgBiT/GSPT1 HiBiT cells or 3000 cells/well for HEK293 LgBiT/CCNK HiBiT cells) 384-well, tissue culture-treated white plates (Perkin Elmer 6007680) in 10 μL media lacking selection for 18-24 hours. Plates were spun at 300 g for 30 seconds and stored in the incubator overnight. After 24 hours, a 5 μL aliquot of recombinant target protein (final concentration of either 5 μM KRAS amino acids 1-169, C51S, C80L, C118S, G12C or 3 μM EGFR amino acids 696-1022 or 3 μM EGFR amino acids 696-1022, T790M, L858R) was added to wells, followed immediately by a 5 μL aliquot of 4× compound-containing medium supplemented with Endurazine Substrate (Promega N2570) was added in each well, at a final top concentration of 10 μM test compound and 0.5× Endurazine, with 4-fold dilutions, using DMSO alone as a negative control. Plates were then spun at 300×g for 3 minutes again and cultured at 37° C. with 5% CO2. After 6 hours the plate was read on Envision MultiMode Plate Reader 2105 (Perkin Elmer) to measure luminescence signal. Data was normalized to DMSO treated cell wells. A four-parameter non-linear regression curve fit was applied to dose-response data in Prism to determine the half maximal growth inhibitory concentration (GI50) of each compound.

[4] = 0 μM recombinant KRAS G12C, read-out: DC50 at 0 μM KRAS G12C
[5] = 5 μM recombinant KRAS G12C, read-out: DC50 at 5 μM KRAS G12C

Chain of KRAS G12C (P01116 2-169 isoform P01116-2 G12C): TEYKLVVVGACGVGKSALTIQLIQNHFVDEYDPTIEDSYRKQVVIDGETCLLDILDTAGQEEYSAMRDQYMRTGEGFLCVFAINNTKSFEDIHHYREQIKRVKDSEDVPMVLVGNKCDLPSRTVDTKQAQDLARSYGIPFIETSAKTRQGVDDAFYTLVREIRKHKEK
T2 sequence (P15170 whole entry): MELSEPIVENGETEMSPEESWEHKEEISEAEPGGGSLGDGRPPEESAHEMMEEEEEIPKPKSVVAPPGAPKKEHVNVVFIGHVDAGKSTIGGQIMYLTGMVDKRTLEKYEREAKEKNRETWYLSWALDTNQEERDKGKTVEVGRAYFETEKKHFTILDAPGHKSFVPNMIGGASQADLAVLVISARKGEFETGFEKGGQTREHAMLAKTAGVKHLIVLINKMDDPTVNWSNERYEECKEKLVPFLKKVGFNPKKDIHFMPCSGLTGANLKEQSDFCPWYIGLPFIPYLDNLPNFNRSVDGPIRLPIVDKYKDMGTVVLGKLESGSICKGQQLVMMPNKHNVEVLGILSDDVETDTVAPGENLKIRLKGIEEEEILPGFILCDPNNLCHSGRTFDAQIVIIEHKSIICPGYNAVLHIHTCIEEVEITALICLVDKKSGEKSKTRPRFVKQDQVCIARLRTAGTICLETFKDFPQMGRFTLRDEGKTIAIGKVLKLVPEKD
T2 sequence (Q96SW2 whole entry): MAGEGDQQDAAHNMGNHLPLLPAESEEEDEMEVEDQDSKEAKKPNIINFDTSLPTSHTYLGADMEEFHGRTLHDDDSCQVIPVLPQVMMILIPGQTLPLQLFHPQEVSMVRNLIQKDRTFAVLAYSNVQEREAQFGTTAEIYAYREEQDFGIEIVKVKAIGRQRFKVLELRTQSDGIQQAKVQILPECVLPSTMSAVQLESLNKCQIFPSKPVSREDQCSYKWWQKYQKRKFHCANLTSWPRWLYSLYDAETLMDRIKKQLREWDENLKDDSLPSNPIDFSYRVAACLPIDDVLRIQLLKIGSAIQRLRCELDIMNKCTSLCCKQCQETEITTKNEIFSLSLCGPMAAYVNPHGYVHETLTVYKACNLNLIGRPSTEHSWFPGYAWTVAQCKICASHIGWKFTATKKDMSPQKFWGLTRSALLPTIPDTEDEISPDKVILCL
T2 sequence (Q16531 whole entry partner): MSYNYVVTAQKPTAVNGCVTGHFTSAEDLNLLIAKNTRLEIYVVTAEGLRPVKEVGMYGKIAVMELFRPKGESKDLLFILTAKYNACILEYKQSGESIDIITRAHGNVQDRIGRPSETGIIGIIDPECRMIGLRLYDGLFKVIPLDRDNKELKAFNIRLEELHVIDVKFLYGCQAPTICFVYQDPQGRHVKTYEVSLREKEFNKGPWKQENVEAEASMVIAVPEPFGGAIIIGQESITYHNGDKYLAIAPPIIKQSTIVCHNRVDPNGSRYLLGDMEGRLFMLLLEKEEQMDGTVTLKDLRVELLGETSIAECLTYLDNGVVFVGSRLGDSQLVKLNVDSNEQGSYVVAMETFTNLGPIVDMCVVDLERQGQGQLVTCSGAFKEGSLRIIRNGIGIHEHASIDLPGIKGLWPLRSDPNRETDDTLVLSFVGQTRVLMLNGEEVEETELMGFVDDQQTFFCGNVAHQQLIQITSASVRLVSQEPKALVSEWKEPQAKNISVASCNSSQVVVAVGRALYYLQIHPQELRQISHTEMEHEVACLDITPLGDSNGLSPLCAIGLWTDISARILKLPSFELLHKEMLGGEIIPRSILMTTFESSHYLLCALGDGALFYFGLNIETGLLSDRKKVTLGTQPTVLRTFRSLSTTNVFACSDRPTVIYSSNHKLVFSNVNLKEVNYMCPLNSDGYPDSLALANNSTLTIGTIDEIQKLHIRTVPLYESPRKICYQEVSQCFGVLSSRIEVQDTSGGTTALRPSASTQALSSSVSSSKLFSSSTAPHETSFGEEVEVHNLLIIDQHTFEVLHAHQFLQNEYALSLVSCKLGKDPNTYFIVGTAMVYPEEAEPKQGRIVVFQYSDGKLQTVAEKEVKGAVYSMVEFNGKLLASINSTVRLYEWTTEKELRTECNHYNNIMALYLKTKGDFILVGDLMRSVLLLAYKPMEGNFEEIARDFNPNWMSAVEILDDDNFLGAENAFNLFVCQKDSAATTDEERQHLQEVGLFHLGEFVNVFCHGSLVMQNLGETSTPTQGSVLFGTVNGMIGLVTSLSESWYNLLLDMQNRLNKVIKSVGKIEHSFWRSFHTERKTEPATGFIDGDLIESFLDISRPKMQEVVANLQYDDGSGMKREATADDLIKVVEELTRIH
T1 sequence (Q06187 387-659): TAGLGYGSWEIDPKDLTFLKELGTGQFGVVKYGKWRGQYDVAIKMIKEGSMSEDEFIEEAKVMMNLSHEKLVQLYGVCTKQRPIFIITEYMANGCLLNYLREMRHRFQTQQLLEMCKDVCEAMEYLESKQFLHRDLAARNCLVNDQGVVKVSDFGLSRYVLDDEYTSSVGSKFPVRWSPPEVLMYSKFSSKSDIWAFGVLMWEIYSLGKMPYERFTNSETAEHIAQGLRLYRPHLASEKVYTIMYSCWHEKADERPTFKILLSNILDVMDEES

SMILES	GI50 [1]	DC50 (GSPT1 [2])	IC50 (KRAS G12C)	DC50 (GSPT1 [3]; [4])	DC50 (GSPT1 [3]; [5])	other results
C=C(Cn1cc(CNc2cc(N3CCCC[C@H]3CCO)nc3c(CC)cnn23)ccc1=O)C(=O)N(C)CCOc1c(N)ncnc1-c1cc(F)cc(NC(=O)c2ccc(C3CC3)cc2F)c1C [Compound A1-5]	–	–	–	–	–	Concentration of Effector Protein Ligand (BTK; Matrix Buffer + Protein (BTK), Time 0 h, detected A1-3): 51.8 nM; Concentration of Effector Protein Ligand (BTK; Matrix Buffer + Protein (BTK), Time 1 h, detected A1-3): 72.3 nM; Concentration of Effector Protein Ligand (BTK; Matrix Buffer + Protein (BTK), Time 4 h, detected A1-3): 118 nM; Concentration of Effector Protein Ligand (BTK; Matrix Buffer + Protein (BTK), Time 22 h, detected A1-3): 164 nM; Concentration of Effector Protein Ligand (BTK; Matrix Buffer, Time 0 h, detected A1-3): 44.9 nM; Concentration of Effector Protein Ligand (BTK; Matrix Buffer, Time 1 h, detected A1-3): 49 nM; Concentration of Effector Protein Ligand (BTK; Matrix Buffer, Time 4 h, detected A1-3): 52.4 nM; Concentration of Effector Protein Ligand (BTK; Matrix Buffer, Time 22 h, detected A1-3): 80.5 nM
C=C(COc1ccc2nc3c(c(CC)c2c1)Cn1c-3cc2c(c1=O)COC(=O)[C@]2(O)CC)C(=O)N1CCC[C@@H](n2nc(-c3ccc(Oc4ccccc4)cc3)c3c(N)ncnc32)C1 [Compound A1-6]	–	–	–	–	–	Concentration of Effector Protein Ligand (BTK; Matrix Buffer + Protein (BTK), Time 0 h, detected A1-7): 790 nM; Concentration of Effector Protein Ligand (BTK; Matrix Buffer + Protein (BTK), Time 1 h, detected A1-7): 797 nM; Concentration of Effector Protein Ligand (BTK; Matrix Buffer + Protein (BTK), Time 4 h, detected A1-7): 641 nM; Concentration of Effector Protein Ligand (BTK; Matrix Buffer + Protein (BTK), Time 22 h, detected A1-7): 770 nM; Concentration of Effector Protein Ligand (BTK; Matrix Buffer, Time 0 h, detected A1-7): 104 nM; Concentration of Effector Protein Ligand (BTK; Matrix Buffer, Time 1 h, detected A1-7): 92.6 nM; Concentration of Effector Protein Ligand (BTK; Matrix Buffer, Time 4 h, detected A1-7): 66.4 nM; Concentration of Effector Protein Ligand (BTK; Matrix Buffer, Time 22 h, detected A1-7): 86.4 nM
C=C(COc1cc(Cl)cc(NC(=O)NCc2ccc3c(c2)CN(C2CCC(=O)NC2=O)C3=O)c1)C(=O)N1CCN(c2ncnc3c(F)c(-c4c(O)cccc4F)c(Cl)cc23)CC1 (centres unmarked) [Compound I-43]	< 500 nM	50 to 500 nM	> 10000 nM	–	–	GI50 (HeLa cells (ATCC CCL-2)): 500 to 1500 nM
C=C(COc1cc(Cl)cc(NC(=O)NCc2ccc3c(c2)CN(C2CCC(=O)NC2=O)C3=O)c1)C(=O)N1CC(n2c(=O)c3cc(-c4cc(O)cc5ccccc45)ccc3n2C)C1 (centres unmarked) [Compound I-57]	< 500 nM	50 to 500 nM	> 10000 nM	< 250 nM	< 250 nM	GI50 (HeLa cells (ATCC CCL-2)): 1500 to 10000 nM
C=C(COc1cc(C(F)(F)C(=O)NCc2ccc3c(c2)CN(C2CCC(=O)NC2=O)C3=O)ccc1Cl)C(=O)N1CCN(c2nc(OC[C@@H]3CCCN3C)nc3c2CCN(c2cccc4cccc(Cl)c24)C3)C[C@@H]1CC#N (some centres unmarked) [Compound I-81]	1500 to 10000 nM	50 to 500 nM	< 100 nM	250 to 5000 nM	> 10000 nM	–
C=C(COc1cc([N+](=O)[O-])c(Cl)cc1NC(=O)NCc1ccc2c(c1)CN(C1CCC(=O)NC1=O)C2=O)C(=O)N1CCN(c2nc(OC[C@@H]3CCCN3C)nc3c2CCN(c2cccc4cccc(Cl)c24)C3)C[C@@H]1CC#N (some centres unmarked) [Compound I-82]	> 10000 nM	> 2500 nM	100 to 5000 nM	> 10000 nM	5000 to 10000 nM	–
C=C(CN1C(=O)CCC(N2Cc3cc(CNC(=O)Nc4cccc(Cl)c4O)ccc3C2=O)C1=O)C(=O)N1CCN(c2nc(OC[C@@H]3CCCN3C)nc3c2CCN(c2cccc4cccc(Cl)c24)C3)C[C@@H]1CC#N (some centres unmarked) [Compound I-83]	1500 to 10000 nM	500 to 2500 nM	100 to 5000 nM	250 to 5000 nM	> 10000 nM	–
